Test results reported in patent US9944654B2, “Nargenicin compounds and uses thereof as antibacterial agents” (priority 2014, dated 2018).
Converted amounts (≈) assume the structure as drawn. Like-named read-outs stand apart in the source and are kept apart here.

How the values were obtained:
[1] = system: Pseudomonas aeruginosa MB5890 (CB1101, efflux-deleted); assay: microbe, parasite or virus in culture; type: cell-based; details: Pseudomonas aeruginosa, read-out: P. aeruginosa MB5890 efflux-del (MIC), MHII broth; * = some reduction of growth versus control at […]
[2] = system: Streptococcus pneumoniae MB6357 (CL 2883); assay: Nargenicin antibacterial assay (MIC), S. pneumoniae; type: cell-based; details: Streptococcus pneumoniae, read-out: S. pneumoniae MB2883 (MIC), Isosensitest broth; * = some reduction of growth versus control at […]
[3] = molecular target: T1, E. coli DnaE (DNA polymerase III α-subunit from Escherichia coli) (Escherichia coli, UniProt P10443); assay: In vitro DnaE single enzyme assay (E. coli); type: biochemical
T1 construct: EcDnaE (E. coli DnaE residues 1-1160); 6xHis (N); made in house; host or cells: E. coli BL21(DE3)
How it was run: (§1)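 His-tagged E. coli DnaE (residues 1-1160, 0.8 μg/ml) or S. aureus DnaE (residues 1-1065, 0.05 μg/ml) incubated 30 min at 30° C. with activated calf thymus DNA, 0.025 mM dATP/dGTP/dCTP and 0.011 mM 3H-dTTP in Tris pH 7.5/Mg acetate. TCA-precipitated labelled DNA counted.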

[4] = system: Escherichia coli MB5747 (LS 883, tolC); assay: microbe, parasite or virus in culture; type: cell-based; details: Escherichia coli, read-out: E. coli LS883 tolC (MIC), MHII broth; * = some reduction of growth versus control at […]
[5] = system: Staphylococcus aureus MB6266 (MRSA COL); assay: Nargenicin antibacterial assay (MIC), S. aureus; type: cell-based; details: Staphylococcus aureus, MRSA, read-out: S. aureus COL (MIC), MHII broth + 50% human serum; * = some reduction of growth versus control at […]
[6] = molecular target: T2, S. aureus DnaE (DNA polymerase III α-subunit homolog from Staphylococcus aureus) (Staphylococcus aureus, UniProt Q5HF71); assay: biochemical; type: biochemical
T2 construct: SaDnaE (S. aureus DnaE residues 1-1065); 6xHis (N); made in house; host or cells: E. coli BL21-AI
T2 sequence (Q5HF71 1-1065): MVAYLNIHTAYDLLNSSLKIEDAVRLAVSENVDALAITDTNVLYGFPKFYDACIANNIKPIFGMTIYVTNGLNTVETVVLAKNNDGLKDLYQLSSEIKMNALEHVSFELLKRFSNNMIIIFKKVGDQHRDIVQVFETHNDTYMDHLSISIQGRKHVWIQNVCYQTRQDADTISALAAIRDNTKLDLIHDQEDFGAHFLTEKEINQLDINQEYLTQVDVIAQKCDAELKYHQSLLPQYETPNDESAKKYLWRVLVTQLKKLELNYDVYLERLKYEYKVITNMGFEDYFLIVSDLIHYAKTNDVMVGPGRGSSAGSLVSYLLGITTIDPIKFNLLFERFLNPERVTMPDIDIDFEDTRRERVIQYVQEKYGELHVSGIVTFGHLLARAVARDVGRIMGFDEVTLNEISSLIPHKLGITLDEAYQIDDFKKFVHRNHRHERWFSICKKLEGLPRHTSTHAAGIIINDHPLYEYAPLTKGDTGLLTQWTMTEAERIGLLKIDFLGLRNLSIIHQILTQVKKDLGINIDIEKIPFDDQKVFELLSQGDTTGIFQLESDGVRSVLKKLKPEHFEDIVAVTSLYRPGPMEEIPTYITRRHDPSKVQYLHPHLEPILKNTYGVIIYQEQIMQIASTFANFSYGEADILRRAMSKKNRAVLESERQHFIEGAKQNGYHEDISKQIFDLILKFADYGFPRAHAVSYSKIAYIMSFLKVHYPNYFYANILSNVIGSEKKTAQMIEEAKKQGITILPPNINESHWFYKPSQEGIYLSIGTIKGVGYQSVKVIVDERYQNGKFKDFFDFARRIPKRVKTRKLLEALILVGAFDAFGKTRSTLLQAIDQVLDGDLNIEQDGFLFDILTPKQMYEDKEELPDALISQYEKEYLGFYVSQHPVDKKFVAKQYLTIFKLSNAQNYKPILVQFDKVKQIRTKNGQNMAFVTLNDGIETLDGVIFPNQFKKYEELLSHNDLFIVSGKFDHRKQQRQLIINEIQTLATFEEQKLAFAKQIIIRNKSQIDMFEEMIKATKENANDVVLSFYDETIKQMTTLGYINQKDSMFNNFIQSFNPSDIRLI
How it was run: as §1

[7] = read-out: E. coli DnaE IC50 (converted)

T1 sequence (P10443 whole entry, the tested form may be a part): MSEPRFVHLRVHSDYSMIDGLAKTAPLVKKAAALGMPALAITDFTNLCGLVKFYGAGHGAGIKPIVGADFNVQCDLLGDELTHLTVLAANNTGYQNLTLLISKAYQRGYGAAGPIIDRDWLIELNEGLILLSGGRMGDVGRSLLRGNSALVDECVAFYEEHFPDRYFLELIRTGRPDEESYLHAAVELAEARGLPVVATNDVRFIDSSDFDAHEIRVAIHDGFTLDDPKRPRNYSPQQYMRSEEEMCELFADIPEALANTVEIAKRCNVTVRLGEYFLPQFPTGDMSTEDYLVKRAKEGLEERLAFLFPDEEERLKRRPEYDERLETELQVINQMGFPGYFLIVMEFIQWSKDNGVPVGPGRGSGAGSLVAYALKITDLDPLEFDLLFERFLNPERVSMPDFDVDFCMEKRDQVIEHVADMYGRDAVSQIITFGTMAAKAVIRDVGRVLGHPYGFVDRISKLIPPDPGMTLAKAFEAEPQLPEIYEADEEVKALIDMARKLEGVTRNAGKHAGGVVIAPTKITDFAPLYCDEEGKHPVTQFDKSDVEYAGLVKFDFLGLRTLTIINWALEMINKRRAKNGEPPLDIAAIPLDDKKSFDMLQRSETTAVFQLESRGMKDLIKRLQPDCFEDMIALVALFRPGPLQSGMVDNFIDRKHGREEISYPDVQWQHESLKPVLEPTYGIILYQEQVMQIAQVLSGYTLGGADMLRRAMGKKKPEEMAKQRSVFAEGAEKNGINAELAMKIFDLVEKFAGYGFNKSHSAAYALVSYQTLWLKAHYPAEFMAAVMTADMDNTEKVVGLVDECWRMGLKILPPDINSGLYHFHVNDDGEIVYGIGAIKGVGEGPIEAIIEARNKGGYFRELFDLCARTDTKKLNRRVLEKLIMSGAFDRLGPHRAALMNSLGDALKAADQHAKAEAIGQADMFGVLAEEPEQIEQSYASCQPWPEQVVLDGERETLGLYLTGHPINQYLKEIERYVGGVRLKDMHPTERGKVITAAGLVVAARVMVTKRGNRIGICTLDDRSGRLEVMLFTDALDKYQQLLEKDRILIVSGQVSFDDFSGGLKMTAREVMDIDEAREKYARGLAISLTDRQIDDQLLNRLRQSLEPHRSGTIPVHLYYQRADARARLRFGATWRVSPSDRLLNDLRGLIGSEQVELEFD

| Compound | MIC [1] | MIC [2] | IC50 [3, 7] | MIC [4] | MIC [5] | IC50 ([6]; S. aureus DnaE IC50) | IC50 ([3]; E. coli DnaE IC50) | IC50 ([6]; read-out: S. aureus DnaE IC50 (converted)) |
| --- | --- | --- | --- | --- | --- | --- | --- | --- |
| CO[C@H]1C[C@H]2C=C[C@H]3[C@H]4O[C@]2(/C(C)=C/[C@@H](C)[C@@H](c2ccccc2)OC1=O)[C@@H]3[C@H](O)[C@@H](C)[C@H]4OC(=O)c1ccc[nH]1 [Example 51] | > 128 mg/L | > 128 mg/L | 14.6 µM | > 128 mg/L | 0.25 mg/L | < 0.011 µM | – | – |
| CO[C@H]1C[C@H]2C=C[C@H]3[C@H]4O[C@]2(/C(C)=C/[C@@H](C)[C@@H]([C@@H](C)O)OC1=O)[C@@H]3[C@H](O)[C@@H](C)[C@H]4OC(=O)c1cccn1C [Example 196] | > 128 mg/L | 128 mg/L (≈ 242 µM) | > 189 µM | 64 mg/L (≈ 121 µM) | > 128 mg/L | 9.82 µM | – | – |
| CO[C@H]1C[C@H]2[C@@H]3O[C@@H]3[C@H]3[C@H]4O[C@]2(/C(C)=C/[C@@H](C)[C@@H]([C@@H](C)O)OC1=O)[C@@H]3[C@H](O)[C@@H](C)[C@H]4OC(=O)c1ccc[nH]1 [Example 160, (1aS, 1bS,3S,6S,7R,9aS,9bS,10R,11R,12R,13R,13aS,13bR,E)-10-hydroxy-6-((R)-1-hydroxyethyl)-3-methoxy-7,9,11-trimethyl-4-oxo-1 a,lb,2,3,4,6,7,9b,10,11,12,13,13a,13b-tetradecahydro-9a,13-epoxyoxireno[2′,3′:3,4]naphtho[2,1-e]oxecin-12-yl 1H-pyrrole-2-carboxylate] | > 128 mg/L | > 128 mg/L | – | > 8 mg/L | > 8 mg/L | – | > 188 µM | 4.14 µM |
| CO[C@H]1C[C@H]2C=C[C@H]3[C@H]4O[C@]2(/C(C)=C/[C@@H](C)[C@@H]([C@@H](C)O)OC1=O)[C@@H]3[C@H](O)[C@@H](C)[C@H]4OC(=O)c1ccc(Br)[nH]1 [Example 43] | > 128 mg/L | 128 mg/L (≈ 215 µM) | 75.7 µM | 8 mg/L (≈ 13.5 µM) | 64 mg/L | 0.202 µM | – | – |
| CO[C@H]1C[C@H]2C=C[C@H]3[C@H]4O[C@]2(/C(C)=C/[C@@H](C)[C@@H]([C@@H](C)O)OC1=O)[C@@H]3[C@H](O)[C@@H](C)[C@H]4OC(=O)c1ccc(Cl)[nH]1 [Example 44] | 128 mg/L (≈ 233 µM) | 64 mg/L (≈ 116 µM) | 49.1 µM | 8 mg/L (≈ 14.5 µM) | 16 mg/L | < 0.0109 µM | – | – |
| CO[C@H]1C[C@H]2C=C[C@H]3[C@H]4O[C@]2(/C(C)=C/[C@@H](C)COC1=O)[C@@H]3[C@H](O)[C@@H](C)[C@H]4OC(=O)c1ccc[nH]1 [Example 47, (3R,7S,8aS,10aR,11R,12R,13R,14R,14aS,14bS,E)-14-hydroxy-7-methoxy-1,3,13-trimethyl-6-oxo-3,4,6,7,8,8a,10a,11,12,13,14,14a-dodecahydro-11,14b-epoxynaphtho[2,1-e]oxecin-12-yl 1H-pyrrole-2-carboxylate] | > 128 mg/L | > 128 mg/L | > 212 µM | 16 mg/L (≈ 33.9 µM) | 64 mg/L | 0.0891 µM | – | – |
| CC[C@H]1OC(=O)[C@@H](OC)C[C@H]2C=C[C@H]3[C@H]4O[C@]2(/C(C)=C/[C@H]1C)[C@@H]3[C@H](O)C(C)[C@H]4C#N (stereo partly drawn) [Example 189, (3R,4R,7S,8aS,10aR,11R,12S,14R,14aS,14bS,E)-4-ethyl-14-hydroxy-7-methoxy-1,3,13-trimethyl-6-oxo-3,4,6,7,8,8a,10a,11,12,13,14,14a-dodecahydro-11,14b-epoxynaphtho[2,1-e]oxecine-12-carbonitrile] | > 128 mg/L | > 128 mg/L | > 241 µM | > 128 mg/L | > 128 mg/L | 144 µM | – | – |
| CO[C@H]1CC2C=C[C@H]3[C@H]4O[C@]2(/C(C)=C/[C@@H](C)[C@@H]([C@@H](C)O)OC1=O)[C@@H]3[C@H](OC(=O)NS(=O)(=O)c1ccccc1)[C@@H](C)[C@H]4OC(=O)c1ccc[nH]1 (stereo partly drawn) [Example 40, (3R,4S,7S,10aR,11R,12R,13R,14R,14aS,14bS,E)-4-((R)-1-hydroxyethyl)-7-methoxy-1,3,13-trimethyl-6-oxo-14-(((phenylsulfonyl)carbamoyl)oxy)-3,4,6,7,8,8a,10a,11,12,13,14,14a-dodecahydro-11,14b-epoxynaphtho[2,1-e]oxecin-12-yl 1H-pyrrole-2-carboxylate] | > 128 mg/L | > 128 mg/L | > 143 µM | > 128 mg/L | > 128 mg/L | 1.57 µM | – | – |
| CO[C@H]1C[C@H]2C=CC3C4[C@H](O)[C@@H](C)[C@@H](OC(=O)c5ccc[nH]5)[C@@H]3O[C@]42/C(C)=C/[C@@H](C)[C@@H]([C@@H](C)OC(=O)n2nnnc2N)OC1=O [Example 64] | 128 mg/L (≈ 204 µM) | > 128 mg/L | 46.3 µM | 4 mg/L (≈ 6.38 µM) | 4 mg/L | < 0.00957 µM | – | – |
| CO[C@H]1C[C@H]2C=C[C@H]3[C@H]4O[C@]2(/C(C)=C/[C@@H](C)[C@@H]([C@@H](C)OC(=O)NC(C)(CO)CO)OC1=O)[C@@H]3[C@H](O)[C@@H](C)[C@H]4OC(=O)c1ccc[nH]1 [Example 21] | 128 mg/L (≈ 198 µM) | 128 mg/L (≈ 198 µM) | > 155 µM | 8 mg/L (≈ 12.4 µM) | 16 mg/L | < 0.00928 µM | – | – |
| CO[C@H]1C[C@H]2C=C[C@H]3[C@H]4O[C@]2(/C(C)=C/[C@@H](C)[C@@H](C(C)=O)OC1=O)[C@@H]3C(=O)[C@@H](C)[C@H]4OC(=O)c1ccc[nH]1 [Example 171] | > 128 mg/L | > 128 mg/L | 176 µM | > 8 mg/L | > 8 mg/L | 6.84 µM | – | – |
| CO[C@H]1CC2C=C[C@H]3[C@H]4O[C@]2(/C(C)=C/[C@@H](C)[C@@H]([C@@H](C)OC(=O)C[n+]2ccc(C(N)=O)cc2)OC1=O)[C@@H]3[C@H](O)[C@@H](C)[C@H]4OC(=O)c1ccc[nH]1 (stereo partly drawn) [Example 70] | 16 mg/L | > 128 mg/L | 13.3 µM | 0.5 mg/L | 0.5 mg/L | < 0.00884 µM | – | – |
| CO[C@H]1C[C@H]2C=C[C@H]3[C@H]4O[C@]2(/C(C)=C/[C@@H](C)[C@@H]([C@@H](C)OC(=O)NCc2ccncc2)OC1=O)[C@@H]3[C@H](O)[C@@H](C)[C@H]4OC(=O)c1ccc[nH]1 [Example 11] | > 128 mg/L | > 128 mg/L | 123 µM | 16 mg/L (≈ 24.6 µM) | 32 mg/L | 0.0292 µM | – | – |
| CO[C@H]1C[C@H]2C=C[C@H]3[C@H]4O[C@]2(/C(C)=C/[C@@H](C)[C@H](c2ccccc2)OC1=O)[C@@H]3[C@H](O)[C@@H](C)[C@H]4OC(=O)c1ccc[nH]1 [Example 52] | > 128 mg/L | > 128 mg/L | 73 µM | > 128 mg/L | > 128 mg/L | 1.1 µM | – | – |
| CO[C@H]1C[C@H]2C=C[C@H]3[C@H]4O[C@]2(/C(C)=C/[C@@H](C)[C@@H]([C@@H](C)OC(=O)NNC(N)=O)OC1=O)[C@@H]3[C@H](O)[C@@H](C)[C@H]4OC(=O)c1ccc[nH]1 [Example 23] | 64 mg/L (≈ 104 µM) | > 128 mg/L | 48.6 µM | 4 mg/L (≈ 6.49 µM) | 8 mg/L | < 0.00973 µM | – | – |
